Experimental data published in article PMC6412019, “Discovery of NV-5138, the first selective Brain mTORC1 activator” (Scientific Reports, 2019).

Test system: HeLa cells
Assay: 14C-leucine protein incorporation assay in HeLa cells
Format: cell-based, human
Details: 30 min labeling, CHX 10 ug/ml
Experimental: Since NV-5138 is an amino acid, we performed two different experiments to rule out any potential liabilities that could arise from the incorporation of NV-5138 into proteins. We first determined whether NV-5138 substitutes for any branched-chain amino acid or methionine into newly synthesized proteins using liquid chromatography followed by tandem mass spectroscopy (LC-MS/MS). NV-5138 (100 µM) or vehicle was incubated with serum and leucine-starved 293T cells for 6 hours followed by proteomic analysis by mass spectrometry.
After incubation, cells were harvested and lysed in Tris/HCl 10 mM pH 7.4 plus 1% NP40. Lysate were mixed with water and 20% trichloroacetic acid (1:1:2) and incubated on ice for 2 h to precipitate the protein. Proteins were collected by centrifugation, solubilized in NaOH, placed in scintillation fluid and read on a Wallac Microbeta Trilux 2450 with a 2-min count. Scintillation values were normalized as the percentage of the counts from the DMSO-treated wells.

For `C[C@@H]1C[C@@H]([C@H](O)CC2CC(=O)NC(=O)C2)C(=O)[C@@H](C)C1` [cyclohexamide, reference compound], the “effect on incorporation of 14C-leucine into precipitated proteins” value was “blocked incorporation”.
